pIC50: −log10 of the molar value. Where two headings read alike, the source gives them in different places.
How the values were obtained:
[1] = system: NHE6 or NHE9 knockdown cells; assay: MTT cell viability assay in NHE6 or NHE9 knockdown cells; format: cell-based, human; conditions: for pIC50: Homo sapiens
Protocol: Lentiviruses and cell transduction pLKO.1-NHE6 and pLKO.1-NHE9 shRNA (Sigma-Aldrich) were co-transfected with ViraPower™ Lentiviral Packaging Mix (Invitrogen) into HEK293T cells according to manufacturer's instructions. Viruses were collected and concentrated by ultracentrifugation 72 h after transfection. HT-1080 and MDA-MB-231 cells were infected overnight with viruses and selected with puromycin (2 μg/ml) on the third day following transduction.
(§1) Cells (5×10^3) were cultured in 96-well plates and pre-incubated under 21% O2 or 1% O2 for 4 h following the addition of drugs for 72 h. Cell viability was measured using the 3-(4,5-dimethylthiazol-2-yl)-2,5-diphenyltetrazolium bromide (MTT) dye (Life Technologies) according to manufacturer's instructions. Because hypoxic conditions may affect the reduction of MTT to formazan, incubation of all cell cultures with MTT were performed under normoxic conditions. Each experiment was performed in triplicate and at least three independent experiments were performed. Log-scale dose-response data were plotted on a graph and a three-parameter non-linear regression was applied to determine IC50 values. For calculation of the IC50s, both normoxic and hypoxic drug-treated samples were normalized with their untreated counterpart.

HT1080 cancer cell line = assay: MTT assay, doxorubicin with C2 or C2WY→AA peptide; format: cell-based; conditions: Homo sapiens
Protocol: The IC50 (half-maximal inhibitory concentration) values of doxorubicin for HT1080 cancer cell line treated with the C2 peptide ([…] (SEQ ID NO: 7)) or the C2WY→AA peptide ([…] (SEQ ID NO: 60)) were determined in normoxia or hypoxia.
Cells (5×10^3) were cultured in 96-well plates and preincubated under 21% O2 or 1% O2 for 4 h following the addition of doxorubicin (dose response from 10^−1 to 10^5 nM) in the presence or absence of C2 and C2WY→AA peptides (SEQ ID NOs: 7 and 60) for 72 h. Cell viability was measured using the MTT dye (Life Technologies) according to the manufacturer's instructions. Because hypoxic conditions may affect the reduction of MTT to formazan, incubation of all cell cultures with MTT were performed under normoxic conditions. Each experiment was performed in triplicate. Log-scale dose-response data were plotted on a graph and a three-parameter nonlinear regression was applied to determine IC50 values. Data are presented as the mean (nM).

[2] = system: MDA-MB-231 breast cancer cells; assay: MTT cell viability assay, MDA-MB-231; format: cell-based, human; conditions: for pIC50: Homo sapiens; for Fold change: MDA-MB-231, IC50 at 1% O2 to IC50 at 21% O2
Protocol: as §1
To assess the role of pH in hypoxia-induced resistance to anthracyclines, the human breast cancer MDA-MB-231 and fibrosarcoma HT-1080 cell lines were incubated in the presence or absence of the commonly used anthracycline drugs, doxorubicin (Dox), daunorubicin (Dau) and the anthracycline analog drug, mitoxantrone (Mtx), under hypoxic (1% O2) or normoxic (21% O2) conditions for 72 hours. Cell viability was then assessed using the MTT assay. The impact of extracellular pH on Dox uptake by HT-1080 was also assessed.

`COc1cccc2c1C(=O)c1c(O)c3c(c(O)c1C2=O)C[C@@](O)(C(=O)CO)C[C@@H]3O[C@H]1C[C@H](N)[C@H](O)[C@H](C)O1` [Dox, doxorubicin] showed a pIC50 ([1]; scrambled shRNA, 1% O2) of 6.34, a pIC50 ([1]; scrambled shRNA, 21% O2) of 6.75 and a pIC50 ([1]; shRNA NHE6, 21% O2) of 6.38. The pIC50 ([1]; shRNA NHE9, 21% O2) was 6.70, the “increase in cell resistance to Dox” value ([1]; NHE6 knockdown, normoxic cells) was 2.4 fold and the “Fold (compared to scrambled 21% O2)” value ([1]; scrambled shRNA, 1% O2) was 2.5 fold. The “Fold (compared to scrambled 21% O2)” value ([1]; scrambled shRNA, 21% O2) was 1.0 fold, the “Fold (compared to scrambled 21% O2)” value ([1]; shRNA NHE6, 21% O2) was 2.4 fold and the “Fold (compared to scrambled 21% O2)” value ([1]; shRNA NHE9, 21% O2) was 1.1 fold. It also gave a pIC50 (HT1080 cancer cell line; HT-1080, Experiment 1, peptide: Vehicle, 1% O2) of 7.08, a pIC50 (HT1080 cancer cell line; HT-1080, Experiment 1, peptide: Vehicle, 21% O2) of 7.80 and a pIC50 (HT1080 cancer cell line; HT-1080, Experiment 1, with C2 0.25 μM, 1% O2) of 7.40. It also gave a pIC50 (HT1080 cancer cell line; HT-1080, Experiment 1, with C2 0.25 μM, 21% O2) of 7.91, a pIC50 (HT1080 cancer cell line; HT-1080, Experiment 1, with C2 5.00 μM, 1% O2) of 7.41 and a pIC50 (HT1080 cancer cell line; HT-1080, Experiment 1, with C2 5.00 μM, 21% O2) of 7.76. It also gave a pIC50 (HT1080 cancer cell line; HT-1080, Experiment 1, with C2WY→AA 0.25 μM, 1% O2) of 7.00, a pIC50 (HT1080 cancer cell line; HT-1080, Experiment 1, with C2WY→AA 0.25 μM, 21% O2) of 7.67 and a pIC50 (HT1080 cancer cell line; HT-1080, Experiment 1, with C2WY→AA 5.00 μM, 1% O2) of 7.12. The pIC50 (HT1080 cancer cell line; HT-1080, Experiment 1, with C2WY→AA 5.00 μM, 21% O2) was 7.79, the pIC50 (HT1080 cancer cell line; HT-1080, Experiment 2, peptide: Vehicle, 1% O2) was 7.15 and the pIC50 (HT1080 cancer cell line; HT-1080, Experiment 2, peptide: Vehicle, 21% O2) was 7.87. The pIC50 (HT1080 cancer cell line; HT-1080, Experiment 2, with C2 0.25 μM, 1% O2) was 7.51, the pIC50 (HT1080 cancer cell line; HT-1080, Experiment 2, with C2 0.25 μM, 21% O2) was 7.93 and the pIC50 (HT1080 cancer cell line; HT-1080, Experiment 2, with C2 20.0 μM, 1% O2) was 7.80. For the same molecule, the pIC50 (HT1080 cancer cell line; HT-1080, Experiment 2, with C2 20.0 μM, 21% O2) was 8.00, the pIC50 (HT1080 cancer cell line; HT-1080, Experiment 2, with C2WY→AA 0.25 μM, 1% O2) was 7.00 and the pIC50 (HT1080 cancer cell line; HT-1080, Experiment 2, with C2WY→AA 0.25 μM, 21% O2) was 7.90. It also gave a pIC50 (HT1080 cancer cell line; HT-1080, Experiment 2, with C2WY→AA 20.0 μM, 1% O2) of 7.13, a pIC50 (HT1080 cancer cell line; HT-1080, Experiment 2, with C2WY→AA 20.0 μM, 21% O2) of 7.96 and a pIC50 ([2]; MDA-MB-231, 72 h, MDA-MB-231, 1% O2, 72 h, read-out: IC50 of anthracyclines) of 6.16. It also gave a pIC50 ([2]; MDA-MB-231, 72 h, MDA-MB-231, 21% O2, 72 h, read-out: IC50 of anthracyclines) of 6.90, a pIC50 ([2]; MDA-MB-231, MDA-MB-231, 1% O2, Baf 100 nM or Cq 10 μM where combined, read-out: IC50 of doxorubicin, cells treated with neutralizing agents) of 6.07 and a pIC50 ([2]; MDA-MB-231, MDA-MB-231, 21% O2, Baf 100 nM or Cq 10 μM where combined, read-out: IC50 of doxorubicin, cells treated with neutralizing agents) of 6.78. It also gave a Fold change [2] of 5.5 fold and a Fold change ([2]; Baf 100 nM or Cq 10 μM where combined) of 5.1 fold.

— US10973840B2, “Methods of sensitizing tumor cells to weak base chemotherapeutic drugs” (SOCPRA SCIENCES SANTÉ ET HUMAINES S.E.C., priority 2017, dated 2021)
